In one experiment the test system is HIB1 cells. The experiment is described as follows: Differentiation of HIB1 brown preadipocytes (lipid accumulation, mitochondrial biogenesis). The conditions noted are these: 24 hours, absence of standard induction cocktail. It counts as cell-based. As to the method: To further investigate the role of OX in BAT differentiation, the effect of OX on the preadipocyte cell line HIB1 was evaluated. […] Expression of genes functioning in lipid metabolism and mitochondrial biogenesis was elevated while the anti-adipogenic factors […], Pref1, and Wnt10 were expressed at very low levels (FIG. 16).
HIB1 cells were stably transfected with lentivirus over-expressing orexin (Len-OX) and compared to vector controls in the absence or presence of exogenous OX (100 nM), Cells were cultured for 7 days in the absence of differentiation medium and stained with Oil Red O. By day 6 of adipogenic differentiation, orexin-expressing cells had undergone normal BAT differentiation as scored by lipid accumulation.
Brown fat morphological defects seen in both adult and newborn OXR1 KO mice were similar to those observed in OX KO mice. […] To examine the cellular and molecular consequences of OXR1 depletion, lentiviral vectors were used to express a short hairpin (sh) shRNA targeting OXR1 (shOXR1; Open Biosystems, Inc., catalog no. RMM4431-98766481) or a scrambled shRNA control (Open Biosystems, Inc., catalog no. RHS4346) in HIB1 mesenchymal cells. […] After 5 days of differentiation, cultures expressing the scrambled shRNA control had undergone brown fat differentiation as scored by Oil Red O staining and shown in FIG. 18. […]

A further experiment has as its system C57BL/6 mice. Briefly: Single intraperitoneal OX injection, indirect calorimetry (CLAMS) and iBAT analysis. In kind it is in vivo. The conditions noted are these: single 30 mg kg−1 i.p. dose. As to the method: One dose of 30 mg kg^−1 OX was administered intraperitoneally in a single dose to 6-8 week C57BL/6 mice, and metabolic rates and energy expenditure of those mice were then compared to 1 mg kg^−1 isoproterenol- or vehicle (PBS) control-injected mice. Isoproterenol is a beta-sympathomimetic and serves as a reference for Ucp1 expression and brown fat activity. Metabolic rates were measured by indirect calorimetry using the Comprehensive Lab Animal Monitoring System (CLAMS, Columbus Instruments). Food and water were available ad libitum. Mice were acclimatized to individual cages for 24 hours prior to recording, and then underwent 24 hours of monitoring.
Increased energy expenditure was positively correlated with iBAT lipolysis, as evident from depletion of fat droplets. […] As a consequence, core body temperature was elevated by OX injection.

From patent US20120190615A1, “METHODS AND COMPOSITIONS FOR INDUCING WEIGHT LOSS” (Sanford-Burnham Medical Research Institute, priority 2011, published 2012) come the findings set out here.

Regarding “orexin-A (EPLPDCCRQKTCSCRLYELLHGAGNHAAGILTL) [OX, human orexin A, cat; No. 24470, Anaspec]”, the “lipid accumulation and mitochondrial biogenesis” value in the experiment with HIB1 cells is “induced extensive lipid accumulation and mitochondrial biogenesis”. For the same substance, in the experiment with C57BL/6 mice, the core body temperature result was “elevated”, the food consumption entry is reported as “increased food consumption”, the “increase in whole-body energy expenditure” value is recorded as 23-25% and the oxygen consumption entry is recorded as “stimulated oxygen consumption”. In the experiment with C57BL/6 mice, the physical activity entry is given as “decreased physical activity” and the “prdm16, Pgc1-alpha, C/ebp-alpha, Dio2, Ucp-1 expression in BAT” value is recorded as “induced”. Besides, in the experiment on C57BL/6 mice (isoproterenol 1 mg kg−1 reference), the “extent of iBAT lipolysis” value is “comparable to that induced by isoproterenol”.
